Experiments:
[1] = test system: antibodies in sera from SARS patients (sera 1a, 1b, 2, 6, 37, 62, London, SARS-yellow, SARS-green); format: binding, human; design: Binding of serum 6 to linear peptides of protein X1 of SARS-CoV Urbani / Binding of serum 37 to linear peptides of protein X1 of SARS-CoV Urbani / Binding of serum 6 to looped/cyclic peptide (PEPSCAN-ELISA) / Binding of serum 37 to looped/cyclic peptide (PEPSCAN-ELISA) / Binding of serum 37 to looped/cyclic peptides of protein X1 of SARS-CoV Urbani / Binding of serum 6 to linear peptides of protein X2 / Binding of serum 37 to linear peptides of protein X2 / Binding of serum 37 to looped/cyclic peptides of protein X2 of SARS-CoV Urbani / Binding of serum 6 to linear peptides of protein M of SARS-CoV Urbani / Binding of serum 37 to linear peptides of protein M of SARS-CoV Urbani / Binding of serum 6 to looped/cyclic peptides of protein M of SARS-CoV Urbani / Binding of serum 37 to looped/cyclic peptides of protein M of SARS-CoV Urbani / Binding of serum 6 to linear peptides of protein X3 of SARS-CoV Urbani / Binding of serum 37 to linear peptides of protein X3 of SARS-CoV Urbani / Binding of serum 37 to looped/cyclic peptides of protein X3 of SARS-CoV Urbani / Binding of serum 6 to linear peptides of protein X4 of SARS-CoV Urbani / Binding of serum 37 to linear peptides of protein X4 of SARS-CoV Urbani / Binding of serum 37 to looped/cyclic peptides of protein X4 of SARS-CoV Urbani / Binding of serum 6 to linear peptides of protein X5 of SARS-CoV Urbani / Binding of serum 37 to linear peptides of protein X5 of SARS-CoV Urbani / Binding of serum 37 to looped/cyclic peptides of protein X5 of SARS-CoV Urbani / Binding of serum 6 to linear peptides of protein N of SARS-CoV Urbani / Binding of serum 37 to linear peptides of protein N of SARS-CoV Urbani / Binding of serum 6 to linear peptide (PEPSCAN-ELISA) / Binding of serum 1a to looped/cyclic peptides of protein N of SARS-CoV Urbani / Binding of serum 1b to looped/cyclic peptides of protein N of SARS-CoV Urbani / Binding of serum 2 to looped/cyclic peptides of protein N of SARS-CoV Urbani / Binding of serum 6 to looped/cyclic peptides of protein N of SARS-CoV Urbani / Binding of serum 37 to looped/cyclic peptides of protein N of SARS-CoV Urbani / Binding of serum 62 to looped/cyclic peptides of protein N of SARS-CoV Urbani / Binding of serum London to looped/cyclic peptides of protein N of SARS-CoV Urbani / Binding of serum SARS-green to looped/cyclic peptides of protein N of SARS-CoV Urbani: unit not given here
[2] = test system: control sera (pooled serum of ten healthy LUMC hospital workers; commercial negative donor pooled serum from the Dutch bloodbank); format: binding, human; design: Binding of Control serum LUMC to linear peptides / Binding of Control serum Blood-bank to linear peptides / Binding of Control serum LUMC to looped peptides / Binding of Control Serum Blood-Bank to Looped peptides / Binding of Control serum LUMC to linear peptides of the protein M of SARS-CoV Urbani / Binding of Control serum Blood-bank to linear peptides of the protein M of SARS-CoV Urbani / Binding of Control serum LUMC to looped peptides of the protein M of SARS-CoV Urbani / Binding of Control Serum Blood-Bank to Looped peptides of the protein M of SARS-CoV Urbani: unit not given here
[3] = test system: rabbit serum obtained by immunizing a rabbit with the SARS-CoV strain Frankfurt 1; format: binding; design: Binding of a rabbit serum to linear peptides / Binding of a rabbit serum to looped peptides / Rabbit serum linear peptides / Rabbit serum looped peptides / Binding of a rabbit serum to linear peptides of protein N of SARS-CoV Urbani (Rabbit serum linear peptides) / Binding of a rabbit serum to looped/cyclic peptides of protein N of SARS-CoV Urbani (Rabbit serum looped peptides): unit not given here
[4] = test system: recombinant human anti-SARS-CoV antibody 03-018; format: binding; design: Binding of antibody 03-018 to linear peptides of the N protein of SARS-CoV Urbani / Binding of antibody 03-018 to looped/cyclic peptides of the N protein of SARS-CoV Urbani: unit not given here

Sequence: ITFGGPTDSTDNNQN
- Binding of serum 1a to linear peptides of protein N of SARS-CoV Urbani [1]: 0.2
- Binding of serum 1a to looped/cyclic peptides of protein N of SARS-CoV Urbani [1]: 0.3
- Binding of serum 1b to linear peptides of protein N of SARS-CoV Urbani [1]: 0.1
- Binding of serum 1b to looped/cyclic peptides of protein N of SARS-CoV Urbani [1]: 0.2
- Binding of serum 2 to linear peptides of protein N of SARS-CoV Urbani [1]: 0.1
- Binding of serum 2 to looped/cyclic peptides of protein N of SARS-CoV Urbani [1]: 0.3
- Binding of serum 6 to linear peptides of protein N of SARS-CoV Urbani [1]: 0.1
- Binding of serum 6 to looped/cyclic peptides of protein N of SARS-CoV Urbani [1]: 0.2
- Binding of serum 37 to linear peptides of protein N of SARS-CoV Urbani [1]: 0.7
- Binding of serum 37 to looped/cyclic peptides of protein N of SARS-CoV Urbani [1]: 0.6
- Binding of serum 62 to linear peptides of protein N of SARS-CoV Urbani [1]: 0.6
- Binding of serum 62 to looped/cyclic peptides of protein N of SARS-CoV Urbani [1]: 0.5
- Binding of serum London to linear peptides of protein N of SARS-CoV Urbani [1]: 0.5
- Binding of serum London to looped/cyclic peptides of protein N of SARS-CoV Urbani [1]: 0.4
- Binding of serum SARS-green to linear peptides of protein N of SARS-CoV Urbani [1]: 0.3
- Binding of serum SARS-green to looped/cyclic peptides of protein N of SARS-CoV Urbani [1]: 0.7
- Binding of serum SARS-yellow to linear peptides of protein N of SARS-CoV Urbani [1]: 0.4
- Binding of serum SARS-yellow to looped/cyclic peptides of protein N of SARS-CoV Urbani [1]: 0.3
- Binding of Control Serum Blood-Bank to Looped peptides [2]: 0.7
- Binding of Control serum Blood-bank to linear peptides [2]: 0.5
- Binding of Control serum LUMC to linear peptides [2]: 0.6
- Binding of Control serum LUMC to looped peptides [2]: 0.7
- Binding of a rabbit serum to linear peptides of protein N of SARS-CoV Urbani (Rabbit serum linear peptides) [3]: 0.1
- Binding of a rabbit serum to looped/cyclic peptides of protein N of SARS-CoV Urbani (Rabbit serum looped peptides) [3]: 0.3
- Recognition of the peptide by antibody 03-018 [4]: recognized

Sequence: ETALALLLLDRLNQL
- Binding of serum 1a to linear peptide (PEPSCAN-ELISA) [1]: 0.2
- Binding of serum 1a to looped/cyclic peptides of protein N of SARS-CoV Urbani [1]: 0.4
- Binding of serum 1b to linear peptide (PEPSCAN-ELISA) [1]: 0.1
- Binding of serum 1b to looped/cyclic peptides of protein N of SARS-CoV Urbani [1]: 0.3
- Binding of serum 2 to linear peptide (PEPSCAN-ELISA) [1]: 0.1
- Binding of serum 2 to looped/cyclic peptides of protein N of SARS-CoV Urbani [1]: 0.4
- Binding of serum 6 to linear peptide (PEPSCAN-ELISA) [1]: 0.1
- Binding of serum 6 to looped/cyclic peptides of protein N of SARS-CoV Urbani [1]: 0.2
- Binding of serum 37 to linear peptide (PEPSCAN-ELISA) [1]: 0.6
- Binding of serum 37 to looped/cyclic peptides of protein N of SARS-CoV Urbani [1]: 0.7
- Binding of serum 62 to linear peptide (PEPSCAN-ELISA) [1]: 0.4
- Binding of serum 62 to looped/cyclic peptides of protein N of SARS-CoV Urbani [1]: 0.6
- Binding of serum London to linear peptide (PEPSCAN-ELISA) [1]: 0.5
- Binding of serum London to looped/cyclic peptides of protein N of SARS-CoV Urbani [1]: 0.5
- Binding of serum SARS-green to linear peptide (PEPSCAN-ELISA) [1]: 0.3
- Binding of serum SARS-green to looped/cyclic peptides of protein N of SARS-CoV Urbani [1]: 0.4
- Binding of serum SARS-yellow to linear peptide (PEPSCAN-ELISA) [1]: 0.5
- Binding of serum SARS-yellow to looped/cyclic peptides of protein N of SARS-CoV Urbani [1]: 0.5
- Binding of Control Serum Blood-Bank to Looped peptides [2]: 0.8
- Binding of Control serum Blood-bank to linear peptides [2]: 0.5
- Binding of Control serum LUMC to linear peptides [2]: 0.5
- Binding of Control serum LUMC to looped peptides [2]: 0.7
- Binding of a rabbit serum to linear peptides of protein N of SARS-CoV Urbani (Rabbit serum linear peptides) [3]: 0.4
- Binding of a rabbit serum to looped/cyclic peptides of protein N of SARS-CoV Urbani (Rabbit serum looped peptides) [3]: 0.6
- Binding of antibody 03-018 to linear peptides of the N protein of SARS-CoV Urbani [4]: 0.1
- Binding of antibody 03-018 to looped/cyclic peptides of the N protein of SARS-CoV Urbani [4]: 0.3

Sequence: TRRVRGGDGKMKELS
- Binding of serum 1a to linear peptides of protein N of SARS-CoV Urbani [1]: 0.3
- Binding of serum 1a to looped/cyclic peptides of protein N of SARS-CoV Urbani [1]: 0.2
- Binding of serum 1b to linear peptides of protein N of SARS-CoV Urbani [1]: 0.2
- Binding of serum 1b to looped/cyclic peptides of protein N of SARS-CoV Urbani [1]: 0.1
- Binding of serum 2 to linear peptides of protein N of SARS-CoV Urbani [1]: 0.3
- Binding of serum 2 to looped/cyclic peptides of protein N of SARS-CoV Urbani [1]: 0.2
- Binding of serum 6 to linear peptides of protein N of SARS-CoV Urbani [1]: 0.3
- Binding of serum 6 to looped/cyclic peptides of protein N of SARS-CoV Urbani [1]: 0.2
- Binding of serum 37 to linear peptides of protein N of SARS-CoV Urbani [1]: 0.7
- Binding of serum 37 to looped/cyclic peptides of protein N of SARS-CoV Urbani [1]: 0.4
- Binding of serum 62 to linear peptides of protein N of SARS-CoV Urbani [1]: 0.8
- Binding of serum 62 to looped/cyclic peptides of protein N of SARS-CoV Urbani [1]: 0.3
- Binding of serum London to linear peptides of protein N of SARS-CoV Urbani [1]: 0.5
- Binding of serum London to looped/cyclic peptides of protein N of SARS-CoV Urbani [1]: 0.3
- Binding of serum SARS-green to linear peptides of protein N of SARS-CoV Urbani [1]: 0.3
- Binding of serum SARS-green to looped/cyclic peptides of protein N of SARS-CoV Urbani [1]: 0.0
- Binding of serum SARS-yellow to linear peptides of protein N of SARS-CoV Urbani [1]: 0.7
- Binding of serum SARS-yellow to looped/cyclic peptides of protein N of SARS-CoV Urbani [1]: 0.2
- Binding of Control Serum Blood-Bank to Looped peptides [2]: 0.5
- Binding of Control serum Blood-bank to linear peptides [2]: 0.7
- Binding of Control serum LUMC to linear peptides [2]: 0.8
- Binding of Control serum LUMC to looped peptides [2]: 0.5
- Binding of a rabbit serum to linear peptides of protein N of SARS-CoV Urbani (Rabbit serum linear peptides) [3]: 0.2
- Binding of a rabbit serum to looped/cyclic peptides of protein N of SARS-CoV Urbani (Rabbit serum looped peptides) [3]: 0.3
- Binding of antibody 03-018 to linear peptides of the N protein of SARS-CoV Urbani [4]: 0.1
- Binding of antibody 03-018 to looped/cyclic peptides of the N protein of SARS-CoV Urbani [4]: 0.2

Sequence: SRQLQNSMSGASADS
- Binding of serum 1a to linear peptides of protein N of SARS-CoV Urbani [1]: 0.2
- Binding of serum 1a to looped/cyclic peptides of protein N of SARS-CoV Urbani [1]: 0.2
- Binding of serum 1b to linear peptides of protein N of SARS-CoV Urbani [1]: 0.1
- Binding of serum 1b to looped/cyclic peptides of protein N of SARS-CoV Urbani [1]: 0.1
- Binding of serum 2 to linear peptides of protein N of SARS-CoV Urbani [1]: 0.2
- Binding of serum 2 to looped/cyclic peptides of protein N of SARS-CoV Urbani [1]: 0.3
- Binding of serum 6 to linear peptides of protein N of SARS-CoV Urbani [1]: 0.2
- Binding of serum 6 to looped/cyclic peptides of protein N of SARS-CoV Urbani [1]: 0.1
- Binding of serum 37 to linear peptides of protein N of SARS-CoV Urbani [1]: 0.8
- Binding of serum 37 to looped/cyclic peptides of protein N of SARS-CoV Urbani [1]: 0.4
- Binding of serum 62 to linear peptides of protein N of SARS-CoV Urbani [1]: 0.6
- Binding of serum 62 to looped/cyclic peptides of protein N of SARS-CoV Urbani [1]: 0.3
- Binding of serum London to linear peptides of protein N of SARS-CoV Urbani [1]: 0.6
- Binding of serum London to looped/cyclic peptides of protein N of SARS-CoV Urbani [1]: 0.2
- Binding of serum SARS-green to linear peptides of protein N of SARS-CoV Urbani [1]: 0.5
- Binding of serum SARS-green to looped/cyclic peptides of protein N of SARS-CoV Urbani [1]: 0.3
- Binding of serum SARS-yellow to linear peptides of protein N of SARS-CoV Urbani [1]: 0.5
- Binding of serum SARS-yellow to looped/cyclic peptides of protein N of SARS-CoV Urbani [1]: 0.2
- Control Serum Blood-Bank Looped peptides [2]: 0.5
- Control serum Blood-bank linear peptides [2]: 0.8
- Control serum LUMC linear peptides [2]: 0.7
- Control serum LUMC looped peptides [2]: 0.3
- Binding of a rabbit serum to linear peptides of protein N of SARS-CoV Urbani (Rabbit serum linear peptides) [3]: 0.5
- Binding of a rabbit serum to looped/cyclic peptides of protein N of SARS-CoV Urbani (Rabbit serum looped peptides) [3]: 0.6
- Binding of antibody 03-018 to linear peptides of the N protein of SARS-CoV Urbani [4]: 0.1
- Binding of antibody 03-018 to looped/cyclic peptides of the N protein of SARS-CoV Urbani [4]: 0.2
